Data on two molecules can be found in patent publication US10781431B2, “Cardiotonic steroid antagonists and related methods” (MARSHALL UNIVERSITY RESEARCH CORPORTION, priority 2014, dated 2020).

The target in one test is T1, Na/K-ATPase α1 (Sus scrofa, UniProt P05024).
T1 construct: in normal LLC-PK1 cells, tyrosine 260 of full length Na/K-ATPase was phosphorylated; endogenous in cells; host or cells: LLC-PK1
As to the kind of experiment: tyrosine 260 phosphorylation of Na/K-ATPase, Western blot. It is filed as cell-based. The note with it: LLC-PK1 cells, 100 nM ouabain, FIG. 4C. The procedure: FIGS. 4A-4C include a schematic diagram and images relating to the phosphorylation of Y260 in CD2, FIG. 4A is a schematic diagram showing CD2 sequence from Na/K-ATPase α1 subunit with the tentative Src SH2 domain binding region surrounding Y260 marked in a box (SEQ ID NO: 10). FIG. 4B is an image showing the results of an experiment where five hundred μg of total cell lysate was immunoprecipitated with 10 μg anti-Src antibody and immunoprecipitates were subjected to Western blot analysis of tyrosine 260 phosphorylation using an anti-phosphotyrosine 260 Na/K-ATPase α1 antibody, and where the same membrane was stripped and probed for YFP. FIG. 4C includes images showing the results of an experiment where LLC-PK1 cells were grown up to 100% confluence and then serum starved overnight and treated with 100 nM ouabain for the indicated times and then western blotted by probing for pY260 α1 Na/K-ATPase and a 1 Na/K-ATPase, […] Src and total Src.
In view of the foregoing findings, experiments were then undertaken to develop a highly specific peptide antagonist for disrupting the CD2/SH2 interaction in order to inhibit the cardiotonic steroid-mediated signaling, in cells. […] As depicted in FIG. 4B, CD2 was capable of being phosphorylated when it was expressed in cells.
A general note: Immunoblotting shows a protein as a band on a membrane.

The conditions of test [1]: reconstituted in vitro system; previously demonstrated (PCT/US2011/021130); cited from earlier work.

No end group written: not given here.

As to `C[C@@H]1O[C@@H](O[C@H]2C[C@@H](O)[C@]3(CO)[C@H]4[C@H](O)C[C@]5(C)[C@@H](C6=CC(=O)OC6)CC[C@]5(O)[C@@H]4CC[C@]3(O)C2)[C@H](O)[C@H](O)[C@H]1O` [ouabain], on Na/K-ATPase α1, the “phosphorylation of tyrosine 260 of full length Na/K-ATPase” value was “increased the phosphorylation in a time-dependent manner”. For “CD2C2: peptide derived from CD2, non-phosphorylated; SEQ ID NO: 1 in PCT/US2011/021130 (STNCVEGTARGIVVYTGD; not fully specified (residue 15); listed as Homo sapiens)”, the ouabain antagonism result in test [1] is “effective ouabain antagonist”.
